Measured values published in patent publication US8603737B2, “Methods for identifying HCV protease inhibitors” (priority 2008, dated 2013).

Columns and labels:
[1] = system: HCV RNA replicon in cell line ET (luc-ubi-neo/ET), human Huh7 hepatoma; test: HCV RNA replicon assay (Example 5, Method A); format: cell-based; conditions: Hepatitis C virus, Huh-7, 72 h
Protocol: The compounds were assayed to evaluate the antiviral activity and cytotoxicity of compounds in vitro using HCV RNA replicons. This assay used the cell line ET (luc-ubi-neo/ET), which is a human Huh7 hepatoma cell line that contains an HCV RNA replicon with a stable luciferase (Luc) reporter and cell culture-adaptive mutations. The HCV RNA levels were directly measured by viral specific TaqMan RT-PCR:
The ET cell line was grown in Dulbecco's modified essential media (DMEM), 10% fetal bovine serum (FBS), 1% penicillin-streptomycin (pen-strep), 1% glutamine, 250 μg/mL G418 in a 5% CO2 incubator at 37° C. All cell culture reagents were obtained from Mediatech (Manassas, Va.). Cells were trypsinized (1% trypsin:EDTA) and plated out at 5×10^3 cells/well in white 96-well assay plates (Costar) dedicated to cell number (cytotoxicity) or antiviral activity assessments. Drugs were added at six 3-fold concentrations each and the assay was run in DMEM, 5% FBS, 1% pen-strep, 1% glutamine. Human interferon alpha-2b (PBL Biolabs, New Brunswick, N.J.) was included in each run as a positive control compound. […] Antiviral activity was measured by analyzing replicon-derived luciferase activity using the Steady-Glo Luciferase Assay System (Promega, Madison, Wis.) according to manufacturer's instruction. The number of cells in each well was determined by CytoTox-1 reagent (Promega). […]

HCV (A156S) mutant = target: T1, HCV (A156S) mutant (Hepatitis C virus genotype 1b, UniProt P26663, A1182S); test: Mass spectrometric analysis of covalent modification, A156S mutant; format: binding; conditions: 3 hours reaction time
T1 construct: genotype 1b mutations in the NS3 protease of A156T, A156S, D168V, D168A, and R155K
Protocol: (§1) Mass spectrometric analysis of HCV wild type or HCV variants (C159S, A156S, R155K, D168A, A156T, and D168V) in the presence of test compound was performed. 100 pmols of HCV wild type (Bioenza Calif.) was incubated with test compound for 1 hr and 3 hrs at 10-fold excess of test compound to protein. 1 μL aliquots of the samples (total volume of 4.24 μL) were diluted with 10 μL of 0.1% TFA prior to micro C4 ZipTipping directly onto the MALDI target using Sinapinic acid as the desorption matrix (10 mg/mL in 0.1% TFA:Acetonitrile 50:50). Analyses were performed on a Shimadzu Biotech Axima TOF (Shimadzu Instruments) matrix-assisted-laser desorption/ionization Time-of-Flight (MALDI-TOF) mass spectrometer. The same procedure was carried out on 100 pmols of HCV C159S mutant of HCV protease for 3 hrs at 10-fold excess of test compound to protein.

HCV (D168V) mutant = target: T2, HCV (D168V) mutant (Hepatitis C virus genotype 1b, UniProt P26663, D1194V); test: Mass spectrometric analysis of covalent modification, D168V mutant; format: binding; conditions: 3 hours reaction time
T2 construct: genotype 1b mutations in the NS3 protease of A156T, A156S, D168V, D168A, and R155K
Protocol: as §1

HCV (R155K) mutant = test: Mass spectrometric analysis of covalent modification, R155K mutant; format: binding; conditions: 3 hours reaction time
Protocol: as §1

HCV (A156T) mutant = target: T3, HCV (A156T) mutant (Hepatitis C virus genotype 1b, UniProt P26663, A1182T); test: Mass spectrometric analysis of covalent modification, A156T mutant; format: binding; conditions: 3 hours reaction time
T3 construct: genotype 1b mutations in the NS3 protease of A156T, A156S, D168V, D168A, and R155K
Protocol: as §1

[2] = target: T4, NS3 protease self-cleavage in Huh-7-Luc-Neo-ET cells (Hepatitis C virus genotype 1b, UniProt Q9WMX2, E1202G/T1280I); format: cell-based, HCV; conditions: replicon cells treated for 16 hours, continuous exposure (FIG. 3)
T4 construct: host or cells: Huh-7-Luc-Neo-ET replicon cells (human hepatoma Huh7)
Protocol: Inhibition of Protease Self Cleavage
The remaining wells were rinsed 2× with PBS then fed with Replicon Media and returned to the incubator.
Cell lysates were separated by SDS-Page (4-20%) and transferred to Immobilon-P PVDF membrane (Millipore Corporation, MA) and blotted with polyclonal anti NS3 antibody (Bioenza, Calif.). Blots were scanned on an Odyssey infrared scanner from Licor and the FL band and cleavage products were quantified separately using the Licor software provided with the scanner. The cleavage product was calculated as a percentage of the total NS3 in each sample and then normalized to the DMSO control so that the DMSO control reflects 100% activity.

C=C[C@@H]1C[C@]1(NC(=O)[C@@H]1C[C@@H](Oc2cc(-c3ccccc3)nc3cc(OC)ccc23)CN1C(=O)C(NC(=O)OC(C)(C)C)[C@@H](C)OC(=O)/C=C/C)C(=O)NS(=O)(=O)C1CC1 (stereo partly shown) [Compound 3]
IC50 ([1]; read-out: Inhibition, Replicon (IC50)): < 10 nM
IC90 ([1]; read-out: Inhibition, Replicon, IC90 value): < 10 nM

C=CC(=O)N(C)C[C@H](NC(=O)OC(C)(C)C)C(=O)N1C[C@H](OC(=O)N2Cc3cccc(F)c3C2)C[C@H]1C(=O)N[C@]1(C(=O)NS(=O)(=O)C2CC2)C[C@H]1C=C [Compound 4]
conversion via covalent modification (mass spectrometry) (HCV (A156S) mutant): complete conversion
conversion via covalent modification (mass spectrometry) (HCV (D168V) mutant): complete conversion
conversion via covalent modification (mass spectrometry) (HCV (R155K) mutant): good conversion
conversion via covalent modification (mass spectrometry) (HCV (A156T) mutant): complete conversion

CC(C)(C)OC(=O)NC1CN(C(=O)CCl)CCC/C=C\[C@@H]2C[C@@]2(C(=O)NS(=O)(=O)C2CC2)NC(=O)[C@@H]2C[C@@H](OC(=O)N3Cc4cccc(F)c4C3)CN2C1=O (stereo partly shown) [Compound 8]
NS3 internal self-cleavage products after treatment [2]: inhibited
